Experimental data: patent US20200270647A1, “TRANSGENIC STRAIN FOR PRODUCING SUCCINATE AND METHOD FOR PRODUCING SUCCINATE” (NATIONAL CHIAO TUNG UNIVERSITY, priority 2019, published 2020)

Tested on: PCC7942 cyanobacterium strain
Method: The bacterium amount (cell amount) was monitored by measuring the optical density (OD) of the culture medium at a wavelength of 730 nm using the Biotek epoch 2 microplate spectrophotometer. The OD730 is calculated based on a recalibration of an optical path length 1 cm.

SMILES	growth inhibition effect on the cyanobacterium strain (wild-type PCC7942 in BG-11, different concentrations, cell density observed for three days, versus sodium chloride with same sodium concentration)	toxicity to the growth or persistence of the cyanobacterium strain
O=C([O-])CCC(=O)[O-].[Na+].[Na+] [disodium succinate]	almost equivalent to the growth inhibition effect of sodium chloride	–
O=C(O)CCC(=O)O [succinate]	–	not toxic
